Assays:
Experiment in all cases: Bacterial growth with dyes, optical density after 24 hours
Format in all cases: cell-based
Settings in all cases: with 3 μM DiSC3(5) and 3 μM SYTO 13/9
P. Aeruginosa NCTC 10332 = system: P. Aeruginosa NCTC 10332
Description: (§1) FIG. 3 is a graph showing is a graph showing the average optical density after 24 hours (OD 600) of P. Aeruginosa NCTC 10332, E. Coli SEC 31, Enterococcus faecium NCTCT 7171, P. Mirabilis NCTC 11938, S. Aureus NCTC 8532 and Klebsiella pneumoniae NCTC 9633, when incubated with DiSC3(5), SYBR Green I and SYTO 13/9 where different concentrations of SYBR Green I were assessed.
as §1, with “FIG. 4” for “FIG. 3”, “of SYTO 13/9” for “of SYBR Green I”
(§2) Comparative experiments were conducted using multiple DNA dyes in low concentration and one DNA at different (and higher) concentration in order to establish whether increasing DNA dye concentration would affect bacterial growth and hinder the differentiation of bacterial strains.
(§3) Experiments were conducted which were similar to Example 1.
(§4) In one experiment, 3 μM of DiSC3(5) and 3 μM of SYTO 13/9 was assessed with CYBR Green I at the following concentrations: 1× average, 3× average, 10× average, 30 average and 100× average.
(§5) In another experiment, 3 μM of DiSC3(5) and 10× of CYBR Green I was assessed with SYTO 13/9 at the following concentrations: 1 μM average, 3 μM average and 10 μM average.

S. Aureus NCTC 8532 = system: S. Aureus NCTC 8532
Description: as §1
as §1, with “FIG. 4” for “FIG. 3”, “of SYTO 13/9” for “of SYBR Green I”
as §2, §3, §4, §5

[1] = system: Klebsiella pneumoniae NCTC 9633
Description: as §1
as §1, with “FIG. 4” for “FIG. 3”, “of SYTO 13/9” for “of SYBR Green I”
as §2, §3, §4, §5

CCCN(CCCN(C)C)c1cc(/C=C2/Sc3ccccc3N2C)c2ccccc2[n+]1-c1ccccc1 [SYBR Green I, N′,N′-dimethyl-N-[4-[(E)-(3-methyl-1,3-benzothiazol-2-ylidene)methyl]-1-phenylquinolin-1-ium-2-yl]-N-propylpropane-1,3-diamine]
average optical density after 24 hours (OD 600) (P. Aeruginosa NCTC 10332; SYBR Green I 1x): 5.785 | average optical density after 24 hours (OD 600) (P. Aeruginosa NCTC 10332; SYBR Green I 3x): 5.785 | average optical density after 24 hours (OD 600) (P. Aeruginosa NCTC 10332; SYBR Green I 10x): 2.968 | average optical density after 24 hours (OD 600) (P. Aeruginosa NCTC 10332; SYBR Green I 30x): 3.113 | average optical density after 24 hours (OD 600) (P. Aeruginosa NCTC 10332; SYBR Green I 100x): 2.39 | average optical density after 24 hours (OD 600) (S. Aureus NCTC 8532; SYBR Green I 1x): 3.796 | average optical density after 24 hours (OD 600) (S. Aureus NCTC 8532; SYBR Green I 3x): 0 | average optical density after 24 hours (OD 600) (S. Aureus NCTC 8532; SYBR Green I 10x): 0 | average optical density after 24 hours (OD 600) (S. Aureus NCTC 8532; SYBR Green I 30x): 0 | average optical density after 24 hours (OD 600) (S. Aureus NCTC 8532; SYBR Green I 100x): 0 | average optical density after 24 hours (OD 600) ([1]; SYBR Green I 1x): 4.719 | average optical density after 24 hours (OD 600) ([1]; SYBR Green I 3x): 4.907 | average optical density after 24 hours (OD 600) ([1]; SYBR Green I 10x): 3.439 | average optical density after 24 hours (OD 600) ([1]; SYBR Green I 30x): 2.053 | average optical density after 24 hours (OD 600) ([1]; SYBR Green I 100x): 1.138

Source: patent US20250052744A1, “Dyes and Uses Thereof” (The University of Liverpool, priority 2021, published 2025)
